# What was measured:
# [1] = Co-application of multi-block peptide with semi-permanent dye (Arianor Ebony), color retention; set-up: species or system human; details: difference in Delta E between peptide sample and peptide free control after 3 embrocation cycles (about 12 manual shampoos); pH 8.5-9.0; >2 benefit, >4 substantial benefit
# Procedure: A 0.5% aqueous solution of Arianor Ebony (Sensient Technologies Corp, Milwaukee, Wis.) containing 3% benzyl alcohol and 0.05% diazolidinyl urea (biocide) was prepared. Dye insolubles were removed by filtration and the pH of the dye solution was adjusted to 8.50-9.0, using ethanolamine.
# Approximately 1 mL of the dye solution was added to selected wells of a 24-well plate (Thomson Instrument Co., Oceanside, Calif.; part # 931565). A multi-block peptide (see Table 12) was dissolved in a solution consisting of 3 wt % benzyl alcohol and 95 wt % water to yield a peptide concentration of 2 wt % or approximately 20 mg/mL. The pH was adjusted to 8.5-9.0 using ethanolamine. The peptide solution was then pipetted into test wells containing dye solution in the amount of 1 mL or 0.2 mL respectively. The total volume in each test well was then adjusted to 2 mL where necessary using 3% aqueous benzyl alcohol (pH adjusted to 8.5-9.0 with ethanolamine). Peptide free controls consisted of 1 mL of dye solution diluted to 2 mL with the pH adjusted aqueous benzyl alcohol solution.
# Baseline […] readings were made on one inch long tresses (see below) using an X-RITE® SP78™ Sphere Spectrophotometer (X-Rite, Inc., Grandville, Mich.), by placing the hair tress into the photosensor and calculating L*, a* and b* parameters representing the photometer response. All measurements were the average of three individual determinations.
# The tresses (potted on one end with resin) of natural white, 85% gray or regular bleached hair (International Hair Importers and Products, Bellerose, N.Y.) were immersed in the peptide/dye solution and the entire well plate was agitated on a VORTEX-GENIE® 2 Mixer (Scientific Industries, Bohemia, N.Y.) at a speed setting of 1 for 30 minutes. The tresses were removed from the wells, rinsed for 30 seconds under flowing deionized water and then air dried.
# The following complement of beads was then added to each well containing a hair tress: (8 beads in all; 4 Novagen Coli Rollers Plating Beads—sterilized (EMD Biosciences, San Diego, Calif.; Catalog No. 71013), 2 BioSpec 6.35 mm glass beads (BioSpec Products, Bartlesville, Okla.; Catalog No. 11079635), and 2 BioSpec 3.2 mm Stainless Steel Bead (Catalog No. 11079132ss).
# Then 2.5 mL of aqueous 50% Pantene Pro V® shampoo (Proctor & Gamble Co., Cincinnati, Ohio) was pipetted into each well. The plate was placed on a VWR® VX-2500 Multi-tube Vortexer (VWR, West Chester, Pa.) for 5 minutes to simulate shampooing with embrocation. The hair tresses were then rinsed under flowing deionized water and air dried. This cycle was repeated two more times except that the length of time was 10 minutes for both subsequent embrocation cycles. (This treatment was previously determined to simulate approximately 12 manual shampoo cycles.) At the conclusion of the third embrocation cycle L*, a* and b* values were measured and Delta E values (ΔE) were calculated using equation 1 below:
# where L*=the lightness variable and a* and b* are the chromaticity coordinates of CIELAB colorspace as defined by the International Commission of Illumination (CIE) (Minolta, Precise Color Communication—Color Control From Feeling to Instrumentation, Minolta Camera Co., 1996).
# The Delta E value (ΔE) indicates color retention relative to the non-dyed hair and larger Delta E values indicate better performance. Values listed in the table represent the difference in Delta E values between the peptide-containing sample and the peptide free control. This difference is indicative of color retention after shampoo or water rinse treatments and positive values indicate better performance relative to the peptide free controls (Table 12).
# [2] = Color retention after shampoo treatment, peptide as sealant with Basic Violet 2 dye; set-up: species or system human; details: for Delta E: 0.50 wt % Basic Violet 2, peptide 0.25 wt %, 30 min contact, after 10 shampoo treatments, dye alone 37.34; for hair color retention compared to the dye alone (in words): Basic Violet 2, by Delta E values, vs Comparative Example 13
# Procedure: The peptides used in this Example were prepared as described in Examples 1 and 2. The color retention was quantified using a spectrophotometric measurement technique. A peptide given as SEQ ID NO:41 or SEQ ID NO:42 (38 mg), produced via fermentation as described in Examples 1 and 2, was added to 15 g of an aqueous 0.50 wt % solution of Basic Violet 2 (Abbey Color, Philadelphia, Pa.) and the solution was allowed to stir for 1 h. A natural white hair tress (1 cm wide, potted, International Hair Importers & Products Inc., Bellerose, N.Y.) was inserted into a 15 mm×125 mm test tube and 13 mL of the peptide/dye mixture was injected into the test tube. The hair tress was immersed in contact with the colorant solution for 30 min and the colorant solution was agitated using a magnetic stirrer. The tress was removed, allowed to drip dry, and then air dried for 30 min. The hair tress was then subjected to a water rinse using copious amounts of deionized water, followed by a shampoo treatment with embrocation for 30 seconds. The shampoo treatment involved the application of Pantene Pro-V Sheer Volume shampoo (Proctor & Gamble, Cincinnati, Ohio) to the hair as follows. A quarter-sized drop of the shampoo was distributed evenly over the hair tress and then was massaged aggressively into the hair for 30 sec, after which the hair tress was rinsed with water to remove the shampoo. The hair tress was then dried at room temperature. The shampooing step was repeated 9 more times to give a total of 10 shampoo treatments. The entire procedure described above was repeated without the addition of the hair-binding peptide to serve as a control. The color intensity after the shampoo was measured as described in Examples 4-7.
Substance,ΔE Retention Ebony Dye with 85% Gray Hair [1],Delta E [2],hair color retention compared to the dye alone (in words) [2]
P-EQISGSLVAAPW-KRKRK-D (PEQISGSLVAAPWKRKRKD; Peptide having affinity for hair) [HC 74],7.5,38.91,a small improvement in hair color retention
P-TPPELLHGAPRS-KRKRK-D (PTPPELLHGAPRSKRKRKD; Peptide having affinity for hair) [HC 71],2.9,37.02,no improvement in hair color retention
